Measurements published in paper PMC6450568 (Bioorganic & medicinal chemistry letters, 2019).
Counter-ions that a name gives are not always drawn. Like-named read-outs stand apart in the source and are kept apart here.

Columns and labels:
[1] = target: T1, native MDH (malate dehydrogenase) reporter enzyme (Sus scrofa, UniProt P00346); assay: Native MDH enzymatic reporter counter-screen; format: biochemical
T1 sequence (P00346 25-338): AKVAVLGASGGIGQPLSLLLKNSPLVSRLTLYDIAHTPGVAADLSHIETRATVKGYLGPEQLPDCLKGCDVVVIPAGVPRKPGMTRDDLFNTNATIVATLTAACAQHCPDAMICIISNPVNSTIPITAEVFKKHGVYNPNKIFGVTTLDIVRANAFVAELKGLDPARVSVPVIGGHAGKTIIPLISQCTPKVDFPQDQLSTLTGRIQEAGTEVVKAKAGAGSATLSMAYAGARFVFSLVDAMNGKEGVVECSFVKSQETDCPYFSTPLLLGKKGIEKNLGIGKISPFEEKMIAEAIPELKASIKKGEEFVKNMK

[2] = target: T2, native Rho (rhodanese) reporter enzyme (Bos taurus, UniProt P00586); assay: Native Rho enzymatic reporter counter-screen; format: biochemical
T2 sequence (P00586 2-297 limits assumed): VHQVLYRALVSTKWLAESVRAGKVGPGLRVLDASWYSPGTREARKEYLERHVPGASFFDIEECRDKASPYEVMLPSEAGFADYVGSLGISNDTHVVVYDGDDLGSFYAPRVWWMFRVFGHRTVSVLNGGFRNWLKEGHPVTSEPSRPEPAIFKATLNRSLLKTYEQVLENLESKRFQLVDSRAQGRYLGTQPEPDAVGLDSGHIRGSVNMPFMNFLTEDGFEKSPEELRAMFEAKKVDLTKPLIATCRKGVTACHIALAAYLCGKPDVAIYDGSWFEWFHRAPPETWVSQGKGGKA

[3] = target: GroEL ATPase (Escherichia coli, UniProt P0A6F5); assay: biochemical
Sequence of GroEL ATPase (P0A6F5 2-548): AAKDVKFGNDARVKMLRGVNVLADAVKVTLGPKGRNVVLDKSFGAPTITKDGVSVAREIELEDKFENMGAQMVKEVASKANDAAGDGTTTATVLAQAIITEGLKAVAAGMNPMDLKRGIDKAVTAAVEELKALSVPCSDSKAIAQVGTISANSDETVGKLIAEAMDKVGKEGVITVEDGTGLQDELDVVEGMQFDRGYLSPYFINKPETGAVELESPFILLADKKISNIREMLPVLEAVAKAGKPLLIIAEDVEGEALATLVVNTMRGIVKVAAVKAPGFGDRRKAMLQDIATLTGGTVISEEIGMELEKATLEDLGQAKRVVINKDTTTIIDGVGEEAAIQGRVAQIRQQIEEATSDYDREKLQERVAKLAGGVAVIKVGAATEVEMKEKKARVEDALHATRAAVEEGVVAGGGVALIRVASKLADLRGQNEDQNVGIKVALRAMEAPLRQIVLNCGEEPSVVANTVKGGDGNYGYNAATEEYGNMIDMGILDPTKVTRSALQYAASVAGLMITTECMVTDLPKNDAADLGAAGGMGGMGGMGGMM

[4] = target: human HSP60/10 chaperonin system (Homo sapiens, UniProt P10809); assay: HSP60/10-dMDH refolding assay; format: biochemical
Sequence of human HSP60/10 chaperonin system (P10809 27-573): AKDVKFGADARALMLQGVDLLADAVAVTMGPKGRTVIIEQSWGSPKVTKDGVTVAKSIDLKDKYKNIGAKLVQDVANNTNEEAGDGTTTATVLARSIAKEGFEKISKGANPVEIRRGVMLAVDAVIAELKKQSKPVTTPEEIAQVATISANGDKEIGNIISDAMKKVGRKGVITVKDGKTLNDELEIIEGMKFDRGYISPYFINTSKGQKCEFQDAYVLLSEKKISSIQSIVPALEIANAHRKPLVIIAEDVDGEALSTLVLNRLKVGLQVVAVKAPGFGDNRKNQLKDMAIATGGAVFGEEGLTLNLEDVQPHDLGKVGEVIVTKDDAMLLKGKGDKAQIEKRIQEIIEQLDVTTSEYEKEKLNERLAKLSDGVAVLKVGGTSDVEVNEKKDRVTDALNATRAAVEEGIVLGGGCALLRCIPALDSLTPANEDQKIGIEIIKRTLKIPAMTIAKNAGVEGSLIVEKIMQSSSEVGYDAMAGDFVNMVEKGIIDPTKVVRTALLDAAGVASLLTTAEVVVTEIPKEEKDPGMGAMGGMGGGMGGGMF

[5] = target: T3, E. coli GroEL/ES chaperonin system (Escherichia coli, UniProt P0A6F5); assay: High-throughput screens of LOPAC and MicroSource Spectrum libraries; format: biochemical; conditions: both GroEL/ES-dMDH and GroEL/ES-dRho screens, single concentration
T3 sequence (P0A6F5 2-548): as the sequence (P0A6F5 2-548) above

[6] = target: E. coli GroEL (Escherichia coli, UniProt P0A6F5); assay: Isothermal Titration Calorimetry of suramin binding to GroEL; conditions: ITC, average of triplicate analyses
Sequence of E. coli GroEL (P0A6F5 2-548): as above

[7] = target: T3, E. coli GroEL/ES chaperonin system; assay: biochemical
[8] = target: T3, E. coli GroEL/ES chaperonin system; assay: biochemical; remark: listed apart in the source
[9] = Biochemical Assay IC50, GroEL/ES-mediated refolding of dMDH, dose-response

Row | SMILES | IC50 [1] | IC50 [2] | further results
1 | COc1ccc(-c2ccc3cc(C(=O)O)ccc3c2)cc1C12CC3CC(CC(C3)C1)C2 [Compound 3, Adapalene] | > 63 µM | > 100 µM | 
2 | COc1cc(/C=C/C(=O)CC(=O)/C=C/c2ccc(O)c(OC)c2)ccc1O [Compound 4, Curcumin] | > 63 µM |  | 
3 | C=CC1=C(C)c2cc3[nH]c(cc4nc(cc5[nH]c(cc1n2)c(C)c5CCC(=O)O)C(CCC(=O)O)=C4C)c(C)c3C=C [Compound 5, Protoporphyrin IX] | > 63 µM | > 100 µM | 
4 | C=C(CC)C(=O)c1ccc(OCC(=O)O)c(Cl)c1Cl [Compound 6, Ethacrynic acid] | > 63 µM | > 100 µM | 
5 | CCCCCCCCCCCCCCCCC(C(=O)O)C(O)(CC(=O)O)C(=O)O (centres unmarked) [Compound 7, Agaric acid] | > 63 µM | > 100 µM | 
6 | CCCCCCCCCCCCCCCC[N+](C)(C)C [Compound 11, Hexadecyltrimethylammonium bromide] | > 63 µM | > 100 µM | 
7 | O=C(O)C1=CC(=C(c2ccc(O)c(C(=O)O)c2)c2ccc(O)c(C(=O)O)c2)C=CC1=O [Compound 13, Aurintricarboxylic acid] |  | > 100 µM | 
8 | CC1(C)CCC2=C(O1)c1ccccc1C(=O)C2=O [Compound 15, β-laphachone] | > 63 µM |  | 
9 | Cc1cc(C(C#N)c2ccc(Cl)cc2)c(Cl)cc1NC(=O)c1cc(I)cc(I)c1O (centres unmarked) [Compound 16, Closantel] |  | > 100 µM | 
10 | O=c1c(O)c(-c2ccc(O)c(O)c2)oc2c(O)c(O)cc(O)c12 [Compound 18, Gossypetin] | > 63 µM |  | 
11 | CCCCCCCCCCCCCCCC(=O)OC[C@H](O)[C@H]1OC(=O)C(O)=C1O [Compound 20, L-Ascorbyl palmitate] | > 63 µM |  | 
12 | CC1=CC(=O)c2c(O)cccc2C1=O [Compound 21, Plumbagin] | > 63 µM |  | 
13 | COc1cc(-c2ccc(/N=N/c3ccc4c(S(=O)(=O)O)cc(S(=O)(=O)O)c(N)c4c3O)c(OC)c2)ccc1/N=N/c1ccc2c(S(=O)(=O)O)cc(S(=O)(=O)O)c(N)c2c1O [Compound 22, Pontamine sky blue] | > 63 µM |  | IC50 [3]: > 250 µM; IC50 [4]: 6.8 µM
14 | C=C(NC(=O)C(=C)NC(=O)c1csc(C2=N[C@@H]3c4csc(n4)[C@H]4NC(=O)c5csc(n5)[C@H]([C@](C)(O)[C@@H](C)O)NC(=O)[C@H]5CSC(=N5)/C(=C/C)NC(=O)[C@H]([C@@H](C)O)NC(=O)c5csc(n5)[C@]3(CC2)NC(=O)[C@H](C)NC(=O)C(=C)NC(=O)[C@H](C)NC(=O)[C@H]([C@@H](C)CC)N[C@@H]2C=Cc3c([C@H](C)O)cc(nc3[C@H]2O)C(=O)O[C@@H]4C)n1)C(N)=O [Compound 24, Thiostrepton] | > 63 µM | > 100 µM | 
15 | CCCCC/C=C\C/C=C\C/C=C\C/C=C\CCCC(=O)O [Compound 27, Arachidonic acid] | > 63 µM | > 100 µM | 
16 | Cc1ccc(C(=O)Nc2ccc(S(=O)(=O)O)c3cc(S(=O)(=O)O)cc(S(=O)(=O)O)c23)cc1NC(=O)c1cccc(NC(=O)Nc2cccc(C(=O)Nc3cc(C(=O)Nc4ccc(S(=O)(=O)O)c5cc(S(=O)(=O)O)cc(S(=O)(=O)O)c45)ccc3C)c2)c1 [Compound 28, Suramin] | > 63 µM | > 100 µM | inhibition cutoff in primary and secondary high-throughput screens [5]: did not meet the 50% inhibition cutoff; Kd [6]: 21 µM; Log(Kd/μM) [6]: 1.31 ± 0.30; TΔS [6]: 4.15 ± 0.72 kcal/mol; ΔG [6]: -6.22 ± 0.41 kcal/mol; ΔH [6]: -2.07 ± 0.36 kcal/mol; ΔS [6]: 0.014 ± 0.002 kcal/mol·K; Stoichiometry n, Molecule : GroEL oligomer ([6]; per GroEL tetradecamer, listed as Suramin (28)): 9.4 ± 0.6; Stoichiometry n, Molecule : GroEL monomer ([6]; single-site binding model): 0.67 ± 0.05; IC50 ([7]; Assay IC50, GroEL/ES-dMDH Refolding, Table 1): 8.1 µM; IC50 [7, 9]: 8.1 µM; IC50 ([7]; IC50 values for inhibiting GroEL/ES refolding functions, approximate, dMDH and dRho refolding assays together): 10 to 15 µM
17 | Oc1c(Cl)cc(Cl)cc1Sc1cc(Cl)cc(Cl)c1O [Compound 29, Bithionol] |  | > 100 µM | 
18 | CC1=CC(=O)c2ccccc2C1=O [Compound 30, Menadione] | > 63 µM |  | 
19 | CC[C@H](C)[C@H]1O[C@]2(C=C[C@@H]1C)C[C@@H]1C[C@@H](C/C=C(\C)[C@@H](O[C@H]3C[C@H](OC)[C@@H](O[C@H]4C[C@H](OC)[C@@H](O)[C@H](C)O4)[C@H](C)O3)[C@@H](C)/C=C/C=C3\CO[C@@H]4[C@H](O)C(C)=C[C@@H](C(=O)O1)[C@]34O)O2 [Compound 32, Abamectin (Avermectin b1a)] | > 63 µM | > 100 µM | 
20 | CC[C@H](C)C1O[C@]2(C=C[C@@H]1C)C[C@@H]1C[C@@H](C/C=C(\C)[C@@H](O[C@H]3C[C@H](OC)[C@@H](O[C@H]4C[C@H](OC)[C@H](NC(C)=O)[C@H](C)O4)[C@H](C)O3)[C@@H](C)/C=C/C=C3\CO[C@@H]4[C@H](O)C(C)=C[C@@H](C(=O)O1)[C@]34O)O2 (some centres unmarked) [Compound 33, Eprinomectin] | > 63 µM | > 100 µM | 

Row | SMILES | IC50 [1] | IC50 [2] | further results
21 | CN(C)c1ccc(C(=C2C=CC(=[N+](C)C)C=C2)c2ccc(N(C)C)cc2)cc1 [Compound 34, Crystal violet] | > 63 µM |  | 
22 | COc1ccc(C(=O)/C=C/c2ccccc2)cc1 [Compound 35, 4’-Methoxychalcone] | > 63 µM | > 100 µM | 
23 | O=C1c2ccccc2C(=O)c2c(O)c(O)cc(O)c21 [Compound 37, Purpurin] | > 63 µM |  | 
24 | C[C@H](CCC(=O)O)[C@H]1CC[C@H]2[C@@H]3CC[C@@H]4C[C@H](O)CC[C@]4(C)[C@H]3CC[C@]12C [Compound 38, Lithocholic acid] | > 63 µM | > 100 µM | 
25 | CCc1oc2ccccc2c1C(=O)c1cc(Br)c(O)c(Br)c1 [Compound 40, Benzbromarone] | > 63 µM | > 100 µM | 
26 | C=C1CC[C@H](O)C/C1=C/C=C1\CCC[C@]2(C)[C@@H]([C@H](C)CCCC(C)C)CC[C@@H]12 [Compound 41, Cholecalciferol (vtamin D3)] | > 63 µM | > 100 µM | 
27 | O=C(/C=C/c1ccc(O)cc1)c1ccccc1 [Compound 43, 4-Hydroxychalcone] | > 63 µM | > 100 µM | 
28 | O=C(/C=C/c1ccccc1)c1ccc(O)cc1 [Compound 44, 4’-Hydroxychalcone] | > 63 µM | > 100 µM | 
29 | Oc1ccc(Cl)cc1Cc1cc(Cl)ccc1O [Compound 45, Dichlorophen] | > 63 µM | > 100 µM | 
30 | C=C1CC[C@H](O)C/C1=C/C=C1\CCC[C@]2(C)[C@@H]([C@H](C)/C=C/[C@H](C)C(C)C)CC[C@@H]12 [Compound 46, Calciferol (Vtamin D2)] | > 63 µM |  | 
31 | CC(COc1ccccc1)N(CCCl)Cc1ccccc1 (centres unmarked) [Compound 47, Phenoxybenzamine HCl] | > 63 µM | > 100 µM | 
32 | COc1cc(NC(C)CCCN)c2ncccc2c1 (centres unmarked) [Compound 49, Primiquine] | > 63 µM |  | 
33 | Cc1cc2nc3c(=O)[nH]c(=O)nc-3n(C[C@H](O)[C@H](O)[C@H](O)COP(=O)(O)O)c2cc1C [Compound 50, Riboflavin-5-phosphate sodium salt] | > 63 µM |  | 
34 | CC[n+]1c(-c2ccccc2)c2cc(N)ccc2c2ccc(N)cc21 [Compound 51, Ethidium bromide] | > 63 µM |  | 
35 | CC[C@H]1OC(=O)[C@H](C)[C@@H](O[C@H]2C[C@@](C)(OC)[C@@H](O)[C@H](C)O2)[C@H](C)[C@@H](O[C@@H]2O[C@H](C)C[C@H](N(C)C)[C@H]2O)[C@](C)(O)C[C@@H](C)C(=O)[C@H](C)[C@@H](O)[C@]1(C)O [Compound 55, (−)-Erythromycin] | > 63 µM | > 100 µM | 
36 | CCOc1nc2cccc(C(=O)O)c2n1Cc1ccc(-c2ccccc2-c2nnn[nH]2)cc1 [Compound 56, Candesartan] | > 63 µM | > 100 µM | 
37 | CC(C)(C)NCC(O)c1ccc(O)c(CO)c1 (centres unmarked) [Compound 57, Albuterol] | > 63 µM | > 100 µM | 
38 | CCCCN1CCC(COC(=O)c2cc(Cl)c(N)c3c2OCCO3)CC1 [Compound 59, SB 204070] | > 63 µM | > 100 µM | 
39 | CC(C)n1c(/C=C/C(O)CC(O)CC(=O)O)c(-c2ccc(F)cc2)c2ccccc21 (centres unmarked) [Compound 60, Fluvastatin sodium] | > 63 µM | > 100 µM | IC50 [3]: > 250 µM; IC50 [8]: > 250 µM; IC50 [7, 9]: > 100 µM; IC50 [4]: > 100 µM
